For 18 compounds, IC50 results are on record in patent US10246462B2, “Chemokine receptor modulators and uses thereof” (FLX Bio, Inc., priority 2016, dated 2019).

Structures can show the parent of a compound that is named as a salt.

For this experiment, the target named is CCR4 (Homo sapiens (Human), UniProt P51679). Briefly: Calcium mobilization (Ca Flux) assay. The experiment is classed as cell-based. The protocol:
Calcium Mobilization Assay. Calcium mobilization experiments may be performed by labeling the human T-cell line CEM with […] dye (45 min at room temperature), washing with PBS, and re-suspending into flux buffer (HBSS with 1% FBS).
Background: Calcium flux is commonly read through the fluorescence of an indicator in the cells.

Chain of CCR4 (P51679 whole entry): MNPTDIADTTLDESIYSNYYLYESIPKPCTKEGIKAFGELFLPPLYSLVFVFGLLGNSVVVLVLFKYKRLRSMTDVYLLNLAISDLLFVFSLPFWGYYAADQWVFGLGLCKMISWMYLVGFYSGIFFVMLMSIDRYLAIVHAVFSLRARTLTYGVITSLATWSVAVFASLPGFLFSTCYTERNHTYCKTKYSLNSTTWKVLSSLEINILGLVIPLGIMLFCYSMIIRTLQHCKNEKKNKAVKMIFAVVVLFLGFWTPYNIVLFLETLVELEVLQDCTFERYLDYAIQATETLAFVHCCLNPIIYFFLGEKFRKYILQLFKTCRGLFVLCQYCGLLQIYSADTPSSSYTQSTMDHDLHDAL

The term IC50 denotes the concentration at which inhibition is half-maximal. For the compound `Cc1nn([C@H](C)c2ccc(Cl)cc2Cl)c2nc(N3CC[C@@H](N4CCC[C@H]4CCS(N)(=O)=O)[C@@H](C)C3)cnc12` [Example 53, 2-((S)-1-((3S,4R)-1-(1-((R)-1-(2,4-Dichlorophenyl)ethyl)-3-methyl-1H-pyrazolo[3,4-b]pyrazin-6-yl)-3-methylpiperidin-4-yl)pyrrolidin-2-yl)ethane-1-sulfonamide hydrochloride], the IC50 was 100 to 500 nM. To `Cc1nn([C@H](C)c2ccc(Cl)cc2F)c2nc(N3CC[C@H](N4CCC[C@H]4CCC(=O)O)[C@H](C)C3)cnc12` [Example 49, 3-((S)-1-((3R,4S)-1-(1-((R)-1-(4-Chloro-2-fluorophenyl)ethyl)-3-methyl-1H-pyrazolo[3,4-b]pyrazin-6-yl)-3-methylpiperidin-4-yl)pyrrolidin-2-yl)propanoic acid 2,2,2-trifluoroacetate] belongs 100 to 500 nM; to `Cc1nn([C@H](C)c2ccc(Cl)cc2Cl)c2nc(N3CCC(N4CCC[C@H]4CC(F)C(=O)O)C(C)C3)cnc12` (single isomer, unassigned) [Example 57], greater than 500 nM; to `CC1CN(c2cnc3c(C(F)(F)F)nn(C(C)c4ccc(Cl)cc4Cl)c3n2)CCC1N1CCCCC1` (stereo not drawn) [Example 10, 1-(1-(2,4-Dichlorophenyl)ethyl)-6-(3′-methyl-[1,4′-bipiperidin]-1′-yl)-3-(trifluoromethyl)-1H-pyrazolo[3,4-b]pyrazine hydrochloride], greater than 500 nM.

In the case of `COC[C@@H]1CCCN1C1CC=C(c2cnc3c(C#N)nn([C@H](C)c4ccc(Cl)cc4Cl)c3n2)CC1C` (mixture of isomers) [Example 84, 1-((R)-1-(2,4-Dichlorophenyl)ethyl)-6-(4-((S)-2-(methoxymethyl)pyrrolidin-1-yl)-5-methylcyclohex-1-en-1-yl)-1H-pyrazolo[3,4-b]pyrazine-3-carbonitrile hydrochloride], the concentration for half-maximal inhibition (IC50) lay in the range of 100 to 500 nM. As for `Cc1nn([C@H](C)c2ccc(Cl)cc2Cl)c2nc(N3CCC(N4CCC[C@H]4CCC(=O)O)CC3)cnc12` [Example 51, 3-((S)-1-(1-(1-((R)-1-(2,4-Dichlorophenyl)ethyl)-3-methyl-1H-pyrazolo[3,4-b]pyrazin-6-yl)piperidin-4-yl)pyrrolidin-2-yl)propanoic acid 2,2,2-trifluoroacetate], the IC50 was in the range of 100 to 500 nM. For `Cc1nn([C@H](C)c2ccc(Cl)cc2Cl)c2nc(N3CCC(C4CCCN(CCC(=O)O)C4)C(C)C3)cnc12` (stereo partly drawn) [Example 67, 3-(1′-(1-((R)-1-(2,4-Dichlorophenyl)ethyl)-3-methyl-1H-pyrazolo[3,4-b]pyrazin-6-yl)-3′-methyl-[3,4′-bipiperidin]-1-yl)propanoic acid hydrochloride], the half-maximal inhibitory concentration (IC50) lay within 100 to 500 nM. To `C[C@H](c1ccc(Cl)cc1Cl)n1nc(C#N)c2ncc(N3CC[C@H](N4CCC[C@H]4C(=O)O)[C@H](C(C)(C)O)C3)nc21` [Example 64, ((3R,4S)-1-(3-Cyano-1-((R)-1-(2,4-dichlorophenyl)ethyl)-1H-pyrazolo[3,4-b]pyrazin-6-yl)-3-(2-hydroxypropan-2-yl)piperidin-4-yl)-L-proline hydrochloride] belongs greater than 500 nM; to `Cc1nn([C@H](C)c2ccc(Cl)cc2Cl)c2nc(N3CC[C@H](N4CCC[C@H]4CO)[C@H](C(N)=O)C3)cnc12` [Example 63, (3R,4S)-1-(1-((R)-1-(2,4-Dichlorophenyl)ethyl)-3-methyl-1H-pyrazolo[3,4-b]pyrazin-6-yl)-4-((S)-2-(hydroxymethyl)pyrrolidin-1-yl)piperidine-3-carboxamide hydrochloride], 100 to 500 nM. To `Cc1nn([C@H](C)c2ccc(Cl)cc2Cl)c2nc(N3CCC(N4CCC[C@H]4CC(F)C(=O)O)C(C)C3)cnc12` (single isomer, unassigned) [Example 56] belongs 100 to 500 nM; to `C[C@@H]1CC(c2cnc3c(C#N)nn([C@H](C)c4ccc(Cl)cc4Cl)c3n2)=CC[C@@H]1N1CCC[C@H]1CO` [Example 76, 1-((R)-1-(2,4-Dichlorophenyl)ethyl)-6-((4S,5R)-4-((S)-2-(hydroxymethyl)pyrrolidin-1-yl)-5-methylcyclohex-1-en-1-yl)-1H-pyrazolo[3,4-b]pyrazine-3-carbonitrile], less than 100 nM; to `CC1CN(c2cnc3c(C(N)=O)nn(C(C)c4ccc(Cl)cc4Cl)c3n2)CCC1N1CCCCC1` (stereo not drawn) [Example 4, 1-(1-(2,4-Dichlorophenyl)ethyl)-6-(3′-methyl-[1,4′-bipiperidin]-1′-yl)-1H-pyrazolo[3,4-b]pyrazine-3-carboxamide hydrochloride], 100 to 500 nM. To `CC1C=C(c2cnc3c(C#N)nn([C@H](C)c4ccc(Cl)cc4Cl)c3n2)CCC1N1CCC[C@H]1CCC(=O)O` (stereo partly drawn) [Example 73, 3-((2S)-1-(4-(3-Cyano-1-((R)-1-(2,4-dichlorophenyl)ethyl)-1H-pyrazolo[3,4-b]pyrazin-6-yl)-2-methylcyclohex-3-en-1-yl)pyrrolidin-2-yl)propanoic acid 2,2,2-trifluoroacetate] belongs 100 to 500 nM.

As for `Cc1nn([C@H](C)c2ccc(Cl)cc2Cl)c2nc(N3CCC(N4CCC[C@H]4CCC(=O)O)C[C@@H]3C)cnc12` (mixture of isomers) [Example 50, 3-((2S)-1-((2S)-1-(1-((R)-1-(2,4-Dichlorophenyl)ethyl)-3-methyl-1H-pyrazolo[3,4-b]pyrazin-6-yl)-2-methylpiperidin-4-yl)pyrrolidin-2-yl)propanoic acid 2,2,2-trifluoroacetate], the IC50 is greater than 500 nM. To `Cc1nn([C@H](C)c2ccc(Cl)cc2Cl)c2nc(N3CCC(N4CCC[C@H]4C4CC4C(=O)O)C(C)C3)cnc12` (mixture of isomers) [Example 54, 2-((2S)-1-(1-(1-((R)-1-(2,4-Dichlorophenyl)ethyl)-3-methyl-1H-pyrazolo[3,4-b]pyrazin-6-yl)-3-methylpiperidin-4-yl)pyrrolidin-2-yl)cyclopropane-1-carboxylic acid] belongs greater than 500 nM. To `Cc1nn([C@H](C)c2ccc(Cl)cc2Cl)c2nc(N3CC[C@H](N4CCC[C@H]4C)[C@H](C(=O)O)C3)cnc12` [Example 30, (3R,4S)-1-(1-((R)-1-(2,4-Dichlorophenyl)ethyl)-3-methyl-1H-pyrazolo[3,4-b]pyrazin-6-yl)-4-((R)-2-methylpyrrolidin-1-yl)piperidine-3-carboxylic acid hydrochloride] belongs 100 to 500 nM. Take `CCC1CN(c2cnc3c(C(N)=O)nn(C(C)c4ccc(Cl)cc4Cl)c3n2)CCC1N1CCCCC1` (stereo not drawn) [Example 6, 1-(1-(2,4-Dichlorophenyl)ethyl)-6-(3′-ethyl-[1,4′-bipiperidin]-1′-yl)-1H-pyrazolo[3,4-b]pyrazine-3-carboxamide hydrochloride]: the IC50 lay within 100 to 500 nM.

As for `C[C@@H]1CC(c2cnc3c(C#N)nn([C@H](C)c4ccc(Cl)cc4Cl)c3n2)=CC[C@@H]1N1CCC[C@H]1CN` [Example 81, 6-((4S,5R)-4-((S)-2-(Aminomethyl)pyrrolidin-1-yl)-5-methylcyclohex-1-en-1-yl)-1-((R)-1-(2,4-dichlorophenyl)ethyl)-1H-pyrazolo[3,4-b]pyrazine-3-carbonitrile hydrochloride], the IC50 lay in the range of 100 to 500 nM.
